Source: ChEMBL document CHEMBL5338795, “Novel Triazoles with Potent and Broad-Spectrum Antifungal Activity In Vitro and In Vivo” (J Med Chem, 2023)
Values after ≈ are worked out from the molar mass of the structure shown. Active and inactive are the calls of the source. No cut-off for these calls is given here.

How the values were obtained:
[1] = test system: Candida albicans; assay: Antifungal activity against Candida albicans SC5314 assessed as reduction in fungal growth incubated for 24 hrs by CLSI based microdilution analysis; format: functional
[2] = test system: Meyerozyma guilliermondii; assay: Antifungal activity against Meyerozyma guilliermondii ATCC 6260 assessed as reduction in fungal growth incubated for 24 hrs by CLSI based microdilution analysis; format: functional
[3] = test system: Candida parapsilosis; assay: Antifungal activity against Candida parapsilosis ATCC 22019 assessed as reduction in fungal growth incubated for 24 hrs by CLSI based microdilution analysis; format: functional; settings: Lodderomyces parapsilosis
[4] = test system: Candida tropicalis; assay: Antifungal activity against Candida tropicalis ATCC 750 assessed as reduction in fungal growth incubated for 24 hrs by CLSI based microdilution analysis; format: functional
[5] = test system: Nakaseomyces glabratus; assay: Antifungal activity against Candida glabrata ATCC 15126 assessed as reduction in fungal growth incubated for 24 hrs by CLSI based microdilution analysis; format: functional
[6] = test system: Cryptococcus neoformans; assay: Antifungal activity against Cryptococcus neoformans CGMCC3 1563 assessed as reduction in fungal growth incubated for 72 hrs by CLSI based microdilution analysis; format: functional
[7] = test system: Aspergillus fumigatus; assay: Antifungal activity against Aspergillus fumigatus CGMCC3 7795 assessed as reduction in fungal growth incubated for 48 hrs by CLSI based microdilution analysis; format: functional
[8] = test system: Candida albicans; assay: Antifungal activity against fluconazole-resistant Candida albicans 102 assessed as inhibition of fungal growth measured for 24 hrs by CLSI based microdilution analysis; format: functional
[9] = test system: Candida albicans; assay: Antifungal activity against fluconazole-resistant Candida albicans 13 assessed as inhibition of fungal growth measured for 24 hrs by CLSI based microdilution analysis; format: functional
[10] = test system: Candida albicans; assay: Antifungal activity against fluconazole-resistant Candida albicans 15 assessed as inhibition of fungal growth measured for 24 hrs by CLSI based microdilution analysis; format: functional
[11] = test system: Candida albicans; assay: Antifungal activity against fluconazole-resistant Candida albicans 901 assessed as inhibition of fungal growth measured for 24 hrs by CLSI based microdilution analysis; format: functional
[12] = test system: Candida albicans; assay: Antifungal activity against fluconazole-resistant Candida albicans 24D assessed as inhibition of fungal growth measured for 24 hrs by CLSI based microdilution analysis; format: functional
[13] = test system: Candida albicans; assay: Antifungal activity against fluconazole-resistant Candida albicans 112869 assessed as inhibition of fungal growth measured for 24 hrs by CLSI based microdilution analysis; format: functional
[14] = Hemolytic activity in mouse RBC assessed as hemolysis at 100 microg/ml incubated for 60 mins relative to control; format: toxicity, cell-based, Erythrocyte; settings: red blood cells (erythrocytes), at 100 µg/mL, read-out: Activity
[15] = test system: CYP3A4; assay: Selectivity index, ratio of MIC80 for antifungal activity against Candida albicans to IC50 for inhibition of CYP3A4 in human liver microsomes; format: toxicity; settings: read-out: Selectivity Index
[16] = test system: Candida albicans; assay: Induction of resistance development in Candida albicans SC5314 assessed as increase in MIC treated over 8 serial passages by microdilution assay; format: functional
[17] = test system: Candida albicans; assay: Induction of resistance development in Candida albicans SC5314 assessed as fold increase in MIC treated over 20 serial passages by microdilution assay; format: functional
[18] = biological target: T1, Lanosterol 14-alpha demethylase (Candida albicans (strain SC5314 / ATCC MYA-2876) (Yeast), UniProt P10613); assay: Inhibition of CYP51 in Candida albicans […] assessed as decrease in ergosterol biosynthesis level at 1 times MIC80 incubated for 16 hrs by GC-MS analysis (Rvb=67.2%)
T1 sequence (P10613 whole entry): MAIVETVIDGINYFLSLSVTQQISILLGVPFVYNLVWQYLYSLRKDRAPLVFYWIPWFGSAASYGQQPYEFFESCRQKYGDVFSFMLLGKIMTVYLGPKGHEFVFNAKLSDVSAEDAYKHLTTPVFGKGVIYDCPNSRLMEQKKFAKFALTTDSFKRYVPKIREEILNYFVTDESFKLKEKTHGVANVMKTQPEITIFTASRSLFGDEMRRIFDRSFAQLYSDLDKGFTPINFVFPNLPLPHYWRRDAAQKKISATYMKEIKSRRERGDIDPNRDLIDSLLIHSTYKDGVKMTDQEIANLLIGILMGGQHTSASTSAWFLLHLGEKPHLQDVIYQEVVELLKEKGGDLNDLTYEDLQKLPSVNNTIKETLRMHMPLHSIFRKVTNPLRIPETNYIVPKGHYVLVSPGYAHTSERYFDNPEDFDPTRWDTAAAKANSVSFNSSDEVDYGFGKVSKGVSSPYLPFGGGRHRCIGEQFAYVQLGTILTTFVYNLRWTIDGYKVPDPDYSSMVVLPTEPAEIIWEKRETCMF

[19] = biological target: T1, Lanosterol 14-alpha demethylase; assay: Inhibition of CYP51 in Candida albicans […] assessed as decrease in unknown sterol biosynthesis level at 1 times MIC80 incubated for 16 hrs by GC-MS analysis relative to control
[20] = biological target: Cytochrome P450 3A4 (Homo sapiens, UniProt P08684); assay: Inhibition of CYP3A4 in human liver microsomes using testosterone as substrate preincubated for 5 mins followed by NADPH addition and measured after 5 mins by LC-MS/MS analysis; format: ADME, Microsome
Chain of Cytochrome P450 3A4 (P08684 whole entry): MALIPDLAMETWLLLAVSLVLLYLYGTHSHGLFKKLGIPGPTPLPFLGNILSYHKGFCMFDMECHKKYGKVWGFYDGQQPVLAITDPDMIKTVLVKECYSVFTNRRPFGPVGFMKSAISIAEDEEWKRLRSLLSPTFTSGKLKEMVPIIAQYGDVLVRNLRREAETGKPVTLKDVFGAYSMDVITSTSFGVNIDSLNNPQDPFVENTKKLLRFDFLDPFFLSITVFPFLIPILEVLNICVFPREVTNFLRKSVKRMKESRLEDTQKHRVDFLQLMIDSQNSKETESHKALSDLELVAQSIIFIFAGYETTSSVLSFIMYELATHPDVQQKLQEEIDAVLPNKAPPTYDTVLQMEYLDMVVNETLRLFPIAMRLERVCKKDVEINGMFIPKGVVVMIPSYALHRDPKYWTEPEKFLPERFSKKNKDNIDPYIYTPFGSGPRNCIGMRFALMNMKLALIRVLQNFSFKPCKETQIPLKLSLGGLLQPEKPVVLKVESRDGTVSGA

[21] = biological target: T1, Lanosterol 14-alpha demethylase; assay: Inhibition of CYP51 in Candida albicans […] assessed as decrease in lanosterol biosynthesis level at 0.5 times MIC80 incubated for 16 hrs by GC-MS analysis relative to control
[22] = biological target: T1, Lanosterol 14-alpha demethylase; assay: Inhibition of CYP51 in Candida albicans […] assessed as decrease in ergosterol biosynthesis level at 0.5 times MIC80 incubated for 16 hrs by GC-MS analysis (Rvb=67.2%)
[23] = biological target: T1, Lanosterol 14-alpha demethylase; assay: Inhibition of CYP51 in Candida albicans SC3514 assessed as decrease in eburicol biosynthesis level at 0.5 times MIC80 incubated for 16 hrs by GC-MS analysis (Rvb=21.38%)
[24] = biological target: T1, Lanosterol 14-alpha demethylase; assay: Inhibition of CYP51 in Candida albicans […] assessed as decrease in unknown sterol biosynthesis level at 0.5 times MIC80 incubated for 16 hrs by GC-MS analysis relative to control
[25] = test system: Candida albicans; assay: In-vivo antifungal activity against Candida albicans […] infected in ICR mouse model assessed as median survival time at 1 mg/kg, ip administered once daily pretreated for 24 hrs followed by infection and measured every 2 hrs for 5 days; format: functional; settings: time 144 hrs
[26] = test system: Aspergillus fumigatus; assay: In-vivo antifungal activity against Aspergillus fumigatus CGMCC3 7795 infected in ip dosed ICR mouse model assessed as median survival time administered once daily pretreated for 24 hrs followed by infection and measured every 2 hrs for 5 days; format: functional, organism-based; settings: dose 1.0 mg/kg, time 144.0 hrs
[27] = test system: Candida albicans; assay: In-vivo antifungal activity against multidrug-resistant Candida albicans 24D infected in ICR mouse model assessed as median survival time at 1 mg/kg, ip administered once daily pretreated for 24 hrs followed by infection and measured every 2 hrs for 5 days; format: functional; settings: time 144 hrs
[28] = test system: Candida albicans; assay: In-vivo antifungal activity against Candida albicans […] infected in skin infected ICR mouse model assessed as wound healing at 1 mg/kg, ip pretreated for 24 hrs followed by infection and measured for 5 days; format: functional, organism-based; settings: time 144.0 hrs
[29] = test system: Candida albicans; assay: In-vivo antifungal activity against Candida albicans […] infected in skin infected ICR mouse model assessed as wound healing at 0.5 mg/kg, ip pretreated for 24 hrs followed by infection and measured for 5 days; format: functional, organism-based; settings: time 144.0 hrs
[30] = test system: Candida albicans; assay: In-vivo antifungal activity against Candida albicans […] infected in skin infected ICR mouse model assessed as reduction in fungal burden in skin at 1 mg/kg, ip pretreated for 24 hrs followed by infection and measured for 5 days by Periodic acid-Schiff staining based analysis; format: functional, organism-based; settings: time 144.0 hrs
[31] = test system: Candida albicans; assay: In-vivo antifungal activity against Candida albicans […] infected in skin infected ICR mouse model assessed as reduction in fungal burden in skin at 0.5 mg/kg, ip pretreated for 24 hrs followed by infection and measured for 5 days by Periodic acid-Schiff staining based analysis; format: functional, organism-based; settings: time 144.0 hrs
[32] = Half life in Sprague-Dawley rat at 2 mg/kg, iv measured at 0.08 to 24 hrs by LC-MS/MS analysis; format: ADME, organism-based; settings: in vivo, time 0.08-24 hrs
[33] = Clearance in Sprague-Dawley rat at 2 mg/kg, iv measured at 0.08 to 24 hrs by LC-MS/MS analysis; format: ADME, organism-based; settings: in vivo, time 0.08-24 hrs
[34] = AUC (0 to infinity) in Sprague-Dawley rat at 2 mg/kg, iv measured at 0.08 to 24 hrs by LC-MS/MS analysis; format: ADME, organism-based; set-up: time 0.08-24 hrs, dose 2 mg/kg, route iv; settings: in vivo

Row | SMILES | MIC80 [1] [µg/mL] | MIC80 [2] [µg/mL] | MIC80 [3] [µg/mL] | MIC80 [4] [µg/mL] | MIC80 [5] [µg/mL] | MIC80 [6] [µg/mL] | MIC80 [7] [µg/mL] | MIC80 [8] [µg/mL] | MIC80 [9] [µg/mL] | MIC80 [10] [µg/mL] | MIC80 [11] [µg/mL] | MIC80 [12] [µg/mL] | MIC80 [13] [µg/mL] | hemolysis at 1 h, 100 microg/ml [14] [%] | selectivity ratio [15] | fold change (FC) [17] | inhibition (INH) [18] [%] | inhibition (INH) [19] [%] | other results
1 | Cc1ccc2c(ccn2CCCN2CCN(CC(O)(Cn3cncn3)c3ccc(F)cc3F)CC2)c1 (stereo not given) | 0.062 (≈ 0.125 µM) | 0.125 (≈ 0.253 µM) | 0.125 (≈ 0.253 µM) | 0.625 (≈ 1.26 µM) | 0.625 (≈ 1.26 µM) | 0.062 (≈ 0.125 µM) | 5 (≈ 10.1 µM) | 0.062 (≈ 0.125 µM) | 0.062 (≈ 0.125 µM) | 2.5 (≈ 5.05 µM) | 5 (≈ 10.1 µM) | 0.125 (≈ 0.253 µM) | 0.25 (≈ 0.505 µM) |  |  |  |  |  | 
2 | OC(Cn1cncn1)(Cn1cncn1)c1ccc(F)cc1F [FLUCONAZOLE] | 0.5 (≈ 1.63 µM) | 1.25 (≈ 4.08 µM) | 1.25 (≈ 4.08 µM) | 2.5 (≈ 8.16 µM) | 2.5 (≈ 8.16 µM) | 1.25 (≈ 4.08 µM) | > 100 | > 100 | > 100 | 32 (≈ 104 µM) | > 100 | > 100 | > 100 | 1.7 | 25 | 100 | 17.61 | 24.78 | fold change (FC) [16]: 10
3 | OC(CN1CCN(CCn2ccc3cc(Cl)c(Cl)cc32)CC1)(Cn1cncn1)c1ccc(F)cc1F (stereo not given) | 0.031 (≈ 0.0579 µM) | 0.125 (≈ 0.233 µM) | 0.125 (≈ 0.233 µM) | 0.312 (≈ 0.583 µM) | 0.312 (≈ 0.583 µM) | 0.062 (≈ 0.116 µM) | 5 (≈ 9.34 µM) | 0.062 (≈ 0.116 µM) | 0.062 (≈ 0.116 µM) | 0.625 (≈ 1.17 µM) | 2.5 (≈ 4.67 µM) | 0.062 (≈ 0.116 µM) | 0.25 (≈ 0.467 µM) |  |  |  |  |  | 
4 | OC(CN1CCN(CCCn2ccc3ccccc32)CC1)(Cn1cncn1)c1ccc(F)cc1F (stereo not given) | 0.062 (≈ 0.129 µM) | 0.125 (≈ 0.26 µM) | 0.125 (≈ 0.26 µM) | 0.625 (≈ 1.3 µM) | 0.625 (≈ 1.3 µM) | 0.062 (≈ 0.129 µM) | 10 (≈ 20.8 µM) | 0.062 (≈ 0.129 µM) | 0.062 (≈ 0.129 µM) | 2.5 (≈ 5.2 µM) | 5 (≈ 10.4 µM) | 0.125 (≈ 0.26 µM) | 0.062 (≈ 0.129 µM) |  |  |  |  |  | 
5 | COc1ccc2c(ccn2CCCN2CCN(CC(O)(Cn3cncn3)c3ccc(F)cc3F)CC2)c1 (stereo not given) | 0.062 (≈ 0.121 µM) | 0.125 (≈ 0.245 µM) | 0.062 (≈ 0.121 µM) | 0.625 (≈ 1.22 µM) | 0.312 (≈ 0.611 µM) | 0.125 (≈ 0.245 µM) | 5 (≈ 9.79 µM) | 0.062 (≈ 0.121 µM) | 0.062 (≈ 0.121 µM) | 0.625 (≈ 1.22 µM) | 5 (≈ 9.79 µM) | 0.125 (≈ 0.245 µM) | 0.25 (≈ 0.49 µM) |  |  |  |  |  | 
6 | O[C@@](CN1CCN(CCn2ccc3cc(Br)ccc32)CC1)(Cn1cncn1)c1ccc(F)cc1F | 0.004 (≈ 0.00733 µM) | 0.015 (≈ 0.0275 µM) | 0.008 (≈ 0.0147 µM) | 0.078 (≈ 0.143 µM) | 0.078 (≈ 0.143 µM) | 0.015 (≈ 0.0275 µM) | 0.625 (≈ 1.15 µM) | 0.015 (≈ 0.0275 µM) | 0.015 (≈ 0.0275 µM) | 0.312 (≈ 0.572 µM) | 1.25 (≈ 2.29 µM) | 0.031 (≈ 0.0568 µM) | 0.031 (≈ 0.0568 µM) | 1.9 | 100 | 8 | 5.41 | 27.03 | IC50 [20]: 400 nM; Activity [16]: Active; inhibition (INH) [21]: 13.8%; inhibition (INH) [22]: 33.33%; inhibition (INH) [23]: 21.3%; inhibition (INH) [24]: 14.9%; Time [25]: 6 days; Activity [26]: Dose-Dependent Effect; Time [27]: 12 days; Activity [28]: Active; Activity [29]: Active; Activity [30]: Active; Activity [31]: Active; half-life [32]: 1.04 h; clearance [33]: 26.7 mL/min/kg; AUC(0-inf) [34]: 1260 ng·h/mL
